Test results reported in patent US20210238170A1, “5,5-Difluoro- and 5-Fluoro-5-Methyl-C-Glycoside Derivatives Useful As Dual SGLT1 / SGLT2 Modulators” (Janssen Pharmaceutica NV, priority 2018, published 2021).
Like-named read-outs stand apart in the source and are kept apart here.

Legend:
[1] = target: T1, human SGLT2 (Homo sapiens, UniProt P31639); experiment: SGLT2 in vitro assay: Na-dependent 14C-AMG uptake in CHO-K1 cells stably expressing human SGLT2; format: cell-based; conditions: for inhibition at 0.3 µM: read-out: SGLT2 % Inh @ 0.3 μM
T1 construct: expressed in transfected cells
T1 sequence (P31639 1-672): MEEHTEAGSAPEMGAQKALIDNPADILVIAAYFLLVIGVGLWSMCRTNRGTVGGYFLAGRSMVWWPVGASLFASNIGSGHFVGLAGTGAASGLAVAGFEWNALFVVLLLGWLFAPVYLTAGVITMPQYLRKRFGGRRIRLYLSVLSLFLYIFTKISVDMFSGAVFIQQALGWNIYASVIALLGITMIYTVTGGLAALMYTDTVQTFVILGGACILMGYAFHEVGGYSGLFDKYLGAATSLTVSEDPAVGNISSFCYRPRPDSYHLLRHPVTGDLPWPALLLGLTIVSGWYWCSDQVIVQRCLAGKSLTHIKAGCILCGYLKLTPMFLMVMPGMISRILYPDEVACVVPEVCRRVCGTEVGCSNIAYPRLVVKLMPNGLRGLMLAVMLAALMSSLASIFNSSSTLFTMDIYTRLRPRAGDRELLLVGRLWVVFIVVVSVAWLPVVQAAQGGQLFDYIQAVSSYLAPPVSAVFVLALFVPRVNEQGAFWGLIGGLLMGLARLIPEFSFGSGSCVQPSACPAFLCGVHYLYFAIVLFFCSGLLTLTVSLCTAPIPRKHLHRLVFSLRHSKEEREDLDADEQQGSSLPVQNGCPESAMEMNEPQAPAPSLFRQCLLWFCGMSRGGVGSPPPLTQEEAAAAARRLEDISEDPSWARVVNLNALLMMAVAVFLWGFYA
Method in brief: (§1)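 CHO-K1 cells stably expressing human SGLT1 or SGLT2, induced with 10 mM Na-butyrate for 24 h. Compounds (0.001–10 μM) in Na+-containing HEPES/Tris buffer pH 7.4 were applied for 10 min, then 14C-AMG ([…]) for 2 h at 37°C; Na-dependent uptake read by scintillation; %-inhibition or IC50.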

[2] = system: SD rats; experiment: Oral Glucose Tolerance Test (OGTT) in SD rats: blood glucose excursion AUC and urine glucose excretion; format: in vivo, rat; conditions: mean ± SE; for response vs control in vivo at 1 mg/kg / response vs control in vivo at 10 mg/kg: Rattus norvegicus, 2 h, n = 8, read-out: 120-min Blood Glucose AUC vs Vehicle (%); for Urine Glucose Excretion (g/0-4 hr): n = 8
Description: Biological Example 2: In Vivo Assay
Oral Glucose Tolerance Test (OGTT) in SD Rats
Overnight fasted SD rats were allocated into vehicle or test compound treatment groups based on their body weights (n=8 in each group). The animals were orally dosed with vehicle or test compound at a volume of 10 ml/kg at 30-minute prior to OGTT. The animals then received an OGTT challenge with 2 g/kg (50% glucose solution at the volume of 4 ml/kg, orally). The animals were immediately transferred into metabolic cages after they were dosed with the glucose. Blood glucose levels were measured at 0 (pre-OGTT), 30, 60, and 120 minutes after OGTT using one-touch Glucometer. Blood glucose excursion AUC (area under the curve of blood glucose) was determined from the blood glucose levels measured at the timepoints.
Table 9 below, presents the measured efficacy of the test compound(s), expressed as the percentage (%) of blood glucose AUC vs that in vehicle group. The data is interpreted such that, the smaller the percentage of blood glucose AUC of compound vs vehicle, the greater the efficacy of the test compound. Urine volume and urine glucose concentrations (tested by using Olympus system with Genzyme diagnostics assay reagent) were measured to determine the urine glucose excretion (UGE) in 4-hr period after OGTT (0-4 hours).

[3] = target: T2, human SGLT1 (Homo sapiens, UniProt P13866); experiment: SGLT1 in vitro assay: Na-dependent 14C-AMG uptake in CHO-K1 cells stably expressing human SGLT1; format: cell-based; conditions: for inhibition at 0.3 µM: read-out: SGLT1 % Inh @ 0.3 μM
T2 construct: expressed in transfected cells
T2 sequence (P13866 1-664): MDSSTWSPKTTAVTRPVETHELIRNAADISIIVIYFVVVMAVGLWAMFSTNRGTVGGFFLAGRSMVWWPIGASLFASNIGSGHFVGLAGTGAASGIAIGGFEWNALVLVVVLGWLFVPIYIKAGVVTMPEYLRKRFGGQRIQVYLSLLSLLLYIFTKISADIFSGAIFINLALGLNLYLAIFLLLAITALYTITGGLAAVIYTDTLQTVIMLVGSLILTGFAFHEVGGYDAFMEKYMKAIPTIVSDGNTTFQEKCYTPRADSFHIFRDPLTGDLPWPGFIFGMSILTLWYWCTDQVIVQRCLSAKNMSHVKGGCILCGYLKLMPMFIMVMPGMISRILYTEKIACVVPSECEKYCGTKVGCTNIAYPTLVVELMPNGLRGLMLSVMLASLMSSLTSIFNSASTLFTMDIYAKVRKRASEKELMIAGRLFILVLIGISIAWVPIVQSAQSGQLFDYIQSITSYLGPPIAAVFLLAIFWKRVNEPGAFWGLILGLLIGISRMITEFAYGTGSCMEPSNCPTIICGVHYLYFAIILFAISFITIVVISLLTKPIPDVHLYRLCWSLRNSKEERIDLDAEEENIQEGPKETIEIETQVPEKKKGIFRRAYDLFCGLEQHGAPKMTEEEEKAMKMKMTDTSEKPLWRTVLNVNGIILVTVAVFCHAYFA
Method in brief: as §1

[4] = 0.3 μM, CHO-K1 cells expressing human SGLT2
[5] = CHO-K1 cells expressing human SGLT2, 14C-AMG uptake
[6] = 0.3 μM, CHO-K1 cells expressing human SGLT1
[7] = CHO-K1 cells expressing human SGLT1, 14C-AMG uptake
[8] = @ 0.3 μM, CHO-K1 cells stably expressing human SGLT2, 14C-AMG uptake
[9] = @ 0.3 μM, CHO-K1 cells stably expressing human SGLT1, 14C-AMG uptake
[10] = CHO-K1 cells stably expressing human SGLT2, 14C-AMG uptake, compounds of formula (I) where R0 is fluoro
[11] = CHO-K1 cells stably expressing human SGLT1, 14C-AMG uptake, compounds of formula (I) where R0 is fluoro

| Compound | SGLT2 % Inh @ 0.3 μM [1, 8] [%] | SGLT1 % Inh @ 0.3 μM [3, 9] [%] | inhibition at 0.3 µM [1, 8] [%] | IC50 [1, 10] [nM] | inhibition at 0.3 µM [3, 9] [%] | IC50 [3, 11] [nM] | further results |
| --- | --- | --- | --- | --- | --- | --- | --- |
| C[C@]1(F)[C@H](O)[C@@H](O)[C@H](c2cc(Cc3ccc4c(c3)OCCO4)c(Cl)cc2O)O[C@@H]1CO [Compound 3, (2S,3R,4R,5S,6R)-2-[4-chloro-5-(2,3-dihydro-1,4-benzodioxin-6-ylmethyl)-2-hydroxy-phenyl]-5-fluoro-6-(hydroxymethyl)-5-methyl-tetrahydropyran-3,4-diol] | – | – | – | – | – | – | inhibition at 0.3 µM [1, 4]: 89.4%; IC50 [1, 5]: 2.1 nM; response vs control in vivo at 1 mg/kg ([2]; oral dose 1 mg/kg): 91.3 ± 2%; response vs control in vivo at 10 mg/kg ([2]; oral dose 10 mg/kg): 69.3 ± 1.9%; Urine Glucose Excretion (g/0-4 hr) ([2]; oral dose 1 mg/kg): 0.001 g/0-4 hr; Urine Glucose Excretion (g/0-4 hr) ([2]; oral dose 10 mg/kg): 0.001 g/0-4 hr; inhibition at 0.3 µM [3, 6]: 45.3%; IC50 [3, 7]: 269 nM |
| COc1cc(O)c([C@@H]2O[C@H](CO)[C@@](C)(F)[C@H](O)[C@H]2O)cc1Cc1ccc2c(c1)OCCO2 [Compound 6, (2S,3R,4R,5S,6R)-2-(5-((2,3-dihydrobenzo[b][1,4]dioxin-6-yl)methyl)-2-hydroxy-4-methoxyphenyl)-5-fluoro-6-(hydroxymethyl)-5-methyl-tetrahydro-2H-pyran-3,4-diol] | – | – | – | – | – | – | inhibition at 0.3 µM [1, 4]: 92.8%; IC50 [1, 5]: 4.3 nM; response vs control in vivo at 1 mg/kg ([2]; oral dose 1 mg/kg): 71.6 ± 0.7%; response vs control in vivo at 10 mg/kg ([2]; oral dose 10 mg/kg): 55.5 ± 1.7%; Urine Glucose Excretion (g/0-4 hr) ([2]; oral dose 1 mg/kg): 0.000 g/0-4 hr; Urine Glucose Excretion (g/0-4 hr) ([2]; oral dose 10 mg/kg): 0.047 ± 0.008 g/0-4 hr; inhibition at 0.3 µM [3, 6]: 72.6%; IC50 [3, 7]: 37 nM |
| COc1cc(C#N)c(Cc2ccc(C3CC3)cc2)cc1[C@@H]1O[C@H](CO)C(F)(F)[C@H](O)[C@H]1O [Compound 169] | 78.9 | 12.1 | – | – | – | – | – |
| Cc1ccc(Cc2cc([C@@H]3O[C@H](CO)C(F)(F)[C@H](O)[C@H]3O)c(O)cc2Cl)cc1 [Compound 171, (2S,3R,4R,6R)-2-(4-chloro-2-hydroxy-5-(4-methylbenzyl)phenyl)-5,5-difluoro-6-(hydroxymethyl)-tetrahydro-2H-pyran-3,4-diol] | – | – | 82.4 | 0.5 | 86.4 | 12 | – |
| COc1cc(Cl)c(Cc2ccc(Cl)s2)cc1[C@@H]1O[C@H](CO)C(F)(F)[C@H](O)[C@H]1O [Compound 172] | 79.9 | 40.4 | – | – | – | – | – |
| N#Cc1cc(O)c([C@@H]2O[C@H](CO)C(F)(F)[C@H](O)[C@H]2O)cc1Cc1ccc(C2CC2)cc1 [Compound 173] | 83.3 | 17.3 | – | – | – | – | – |
| OC[C@H]1O[C@@H](c2cc3c(c(Cc4ccc(C5CC5)cc4)c2)OCC3)[C@H](O)[C@@H](O)C1(F)F [Compound 174] | 82.9 | 38.0 | – | – | – | – | – |
| CCc1ccc(Cc2cc([C@@H]3O[C@H](CO)C(F)(F)[C@H](O)[C@H]3O)c(O)cc2C#N)cc1 [Compound 175] | 79.9 | 24.3 | – | – | – | – | – |
| COc1cc(Cl)c(Cc2ccc(C)cc2)cc1[C@@H]1O[C@H](CO)C(F)(F)[C@H](O)[C@H]1O [Compound 176] | – | – | 90.6 | 1.7 | 52 | 105 | – |
| Cc1ccc(Cc2cc([C@@H]3O[C@H](CO)C(F)(F)[C@H](O)[C@H]3O)c(O)cc2C)cc1F [Compound 177] | – | – | 87.8 | 3.1 | 79.6 | 13 | – |
| CN(C)c1ccc(Cc2cc([C@@H]3O[C@H](CO)C(F)(F)[C@H](O)[C@H]3O)cc3c2OCC3)cc1 [Compound 179] | 62.1 | 24.9 | – | – | – | – | – |
| CCc1csc(Cc2cc([C@@H]3O[C@H](CO)C(F)(F)[C@H](O)[C@H]3O)c(O)cc2C)c1 [Compound 182] | – | – | 83.6 | 1.3 | 60.2 | 40 | – |
| COc1c([C@@H]2O[C@H](CO)C(F)(F)[C@H](O)[C@H]2O)cc(Cc2ccc(C3CC3)cc2)c2c1CCO2 [Compound 183] | 87.4 | 39.3 | – | – | – | – | – |
| COc1c([C@@H]2O[C@H](CO)C(F)(F)[C@H](O)[C@H]2O)cc(Cc2ccc(OCF)cc2)c2c1CCO2 [Compound 184] | 73.2 | 24.7 | – | – | – | – | – |
| COc1c([C@@H]2O[C@H](CO)C(F)(F)[C@H](O)[C@H]2O)cc(Cc2ccc(N(C)C)cc2)c2c1CCO2 [Compound 185] | 65.3 | 25.4 | – | – | – | – | – |
| OC[C@H]1O[C@@H](c2cc(Cc3ccc4c(c3)OCCO4)c3c(c2O)OCC3)[C@H](O)[C@@H](O)C1(F)F [Compound 187] | – | – | 74.6 | 35.9 | 52.7 | 160 | – |
| OC[C@H]1O[C@@H](c2cc(Cc3ccc4c(c3)OCCO4)c(Cl)c3c2CCO3)[C@H](O)[C@@H](O)C1(F)F [Compound 188] | 60.1 | 21.6 | – | – | – | – | – |
| [2H]C([2H])(c1ccc2c(c1)OCCO2)c1cc([C@@H]2O[C@H](CO)C(F)(F)[C@H](O)[C@H]2O)ccc1CC [Compound 192] | – | – | 85.7 | 108 | 49.9 | 779 | – |
